The target of assay [1] is T1, human clotting factor VIIa (Homo sapiens, UniProt P08709).
T1 construct: a human clotting factor VIIa (Factor VIIa) purified sample; purchased Enzyme Research Laboratories (Factor VIIa); Calbiochem (tissue factor) HFVIIa (Factor VIIa); 612151 (tissue factor)
As to the kind of experiment: Inhibitory activity against clotting factor VIIa (chromogenic substrate Spectrozyme FVIIa, with tissue factor). It counts as biochemical. The note with it: 10 nmol/L TF, 5 nmol/L Factor VIIa, room temperature 40 minutes, 405 nm. How it is done: Dimethylsulfoxide (DMSO) solutions were prepared with compounds of the invention at concentration of 10 mmol/L (10 mmol/L compound solutions).
One packet of tris-hydroxymethylaminomethane-preset (Tris Preset) (product of SIGMA Corp., Catalog No. T8293), 8.8 g of sodium chloride (NaCl) and 1 g of bovine serum albumin (BSA) were dissolved in 1 L of water to prepare a Tris-BSA buffer (100 mmol/L Tris, 0.15 mol/L NaCl, 0.1% BSA, pH 7.4).
The Tris-BSA buffer (180 μL) was added to the aforementioned 10 mmol/L compound solution (20 μL). A 10-fold dilution series was prepared for this mixture using the aforementioned Tris-BSA buffer, and solutions with the compound at concentrations of 1.0 mmol/L, 100, 10, 1, 0.1, 0.01 and 0.001 μmol/L were prepared (1.0 mmol-0.001 μmol/L compound solutions).
As a control, a solution was prepared by 10-fold dilution of DMSO with the Tris-BSA buffer (control 10% solution).
After dissolving one packet of Tris preset, NaCl (8.8 g) and BSA (1 g) in water (about 900 mL), there were added 1 mol/L aqueous calcium chloride (CaCl2) (15 mL) and 1 mg/mL aqueous cephalin (30 mL), and the total volume was brought to 1 L by adding water. To this solution was added a human tissue factor (TF) sample (product of Calbiochem, Catalog No. 612151) (450 μg) to a TF sample concentration of 10 nmol/L, and then a human clotting factor VIIa (Factor VIIa) purified sample (product of Enzyme Research Laboratories, Catalog No. HFVIIa) (250 μg) was added to a Factor VIIa purified sample concentration of 5 nmol/L, to prepare an enzyme solution (100 mmol/L Tris-HCl, 0.15 mol/L NaCl, 15 mmol/L CaCl2, 30 μg/mL cephalin, 1 mg/mL BSA, 10 nmol/L TF, 5 nmol/L Factor VIIa).
To 110 μL of this enzyme solution was added 15 μL of each of the 1.0 mmol-0.001 μmol/L compound solutions, and then 25 μL of a 1.0 mmol/L synthetic chromogenic substrate solution (Spectrozyme FVIIa) was added and the mixture was allowed to stand at room temperature for 40 minutes. Next, the amount of 4-nitroanilide released into the solution was quantitated by spectrophotometry (405 nm).
A control measurement was conducted in the same manner, using the control 10% solution instead of the compound solution.
This measurement yielded the enzyme reaction inhibition in the presence of 100 μmol/L to 0.1 nmol/L of each compound of the invention. The enzyme reaction inhibition at each compound concentration was subjected to non-linear regression analysis, and the IC50 value for inhibitory activity of each compound against clotting factor VIIa was calculated.

A further assay has as its system healthy human plasma. Description: Blood clotting time prolongation (prothrombin time, steel ball method). The note with it: human thromboplastin, 37° C.

Structures are written as SMILES. Structures can show the parent of a compound that is named as a salt.

T1 sequence (P08709 213-466 limits assumed): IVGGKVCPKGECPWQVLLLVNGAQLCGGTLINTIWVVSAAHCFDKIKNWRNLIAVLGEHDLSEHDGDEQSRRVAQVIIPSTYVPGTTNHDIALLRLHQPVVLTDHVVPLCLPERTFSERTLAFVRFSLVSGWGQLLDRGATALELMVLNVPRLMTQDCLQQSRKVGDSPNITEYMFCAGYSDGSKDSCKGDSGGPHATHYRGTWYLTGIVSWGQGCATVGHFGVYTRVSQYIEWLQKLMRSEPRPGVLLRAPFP
T1 sequence (P08709 61-212 limits assumed): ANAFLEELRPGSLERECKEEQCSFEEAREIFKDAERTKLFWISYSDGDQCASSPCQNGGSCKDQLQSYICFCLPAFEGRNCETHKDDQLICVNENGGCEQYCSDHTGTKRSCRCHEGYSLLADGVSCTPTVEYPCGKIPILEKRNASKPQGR
T1 sequence (P13726 33-295 partner): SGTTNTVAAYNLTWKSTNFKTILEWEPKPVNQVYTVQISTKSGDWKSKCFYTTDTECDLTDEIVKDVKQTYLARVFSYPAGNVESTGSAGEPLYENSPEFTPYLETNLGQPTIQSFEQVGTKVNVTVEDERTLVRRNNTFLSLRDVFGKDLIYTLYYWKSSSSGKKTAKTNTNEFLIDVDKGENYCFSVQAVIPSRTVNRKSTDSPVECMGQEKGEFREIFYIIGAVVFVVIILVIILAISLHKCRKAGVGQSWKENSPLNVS

Consider `CCOc1cc(C(Nc2ccc(C(=N)N)cc2)C(=O)NNc2ccccn2)ccc1OC(C)C.O=C(O)C(F)(F)F` (stereo not shown) [Example 2, 4-(((3-Ethoxy-4-isopropoxyphenyl)-(N′-pyridin-2-ylhydrazinocarbonyl)methyl)amino)benzamidine trifluoroacetate], for which, in assay [1], half-maximal inhibition (IC50) required 96 nM. In addition, in the assay with healthy human plasma, the “h PT × 1.1: compound concentration which produced 10% prolongation compared to the control clotting time” value was determined as 1.00 µM.
The matching figures for `CCOc1cc(C(Nc2ccc(C(=N)N)cc2)C(=O)NNc2ccccc2C(=O)O)ccc1OC(C)C.O=C(O)C(F)(F)F` (stereo not shown) [Example 3, 2-(N′-(2-(4-Carbamimidoylphenylamino)-2-(3-ethoxy-4-isopropoxyphenyl)acetyl)hydrazino)benzoic acid trifluoroacetate]: 51 nM and 1.00 µM.
Compound `CCOc1cc(C(Nc2ccc(C(=N)N)cc2)C(=O)NNS(=O)(=O)c2ccc(NC(C)=O)cc2)ccc1OC(C)C.O=C(O)C(F)(F)F` (stereo not shown) [Example 9, N-(4-(2-(2-(4-Carbamimidoylphenylamino)-2-(3-ethoxy-4-isopropoxyphenyl)acetyl)hydrazinosulfonyl)phenyl)acetamide trifluoroacetate] returned an IC50 in assay [1] of 316 nM. In addition, the “h PT × 1.1: compound concentration which produced 10% prolongation compared to the control clotting time” value in the assay on healthy human plasma turned out to be 1.30 µM.
With `CCOc1cc(C(Nc2ccc(C(=N)N)cc2)C(=O)NNS(=O)(=O)c2ccccc2S(C)(=O)=O)ccc1OC(C)C.O=C(O)C(F)(F)F` (stereo not shown) [Example 10, 4-(1-(3-Ethoxy-4-isopropoxyphenyl)-2-(2-(2-methanesulfonyl)phenylsulfonyl)hydrazino)-2-oxoethylamino)benzamidine trifluoroacetate], in assay [1], inhibition was half-maximal at 233 nM (IC50).
As to `CCOc1cc(C(Nc2ccc(C(=N)N)cc2)C(=O)NNS(=O)(=O)c2ccccc2S(C)(=O)=O)ccc1OC(C)C.O=C(O)C(F)(F)F` (stereo not shown) [Example 10], the “h PT × 1.1: compound concentration which produced 10% prolongation compared to the control clotting time” value with healthy human plasma came to 1.20 µM.
In assay [1], `COc1cc(F)c(C(Nc2ccc(C(=N)N)cc2)C(=O)NNC(=O)c2ccccc2Cl)cc1OC.O=C(O)C(F)(F)F` (stereo not shown) [Example 23, 4-(2-(N′-(2-Chlorobenzoyl)hydrazino)-1-(2-fluoro-4,5-dimethoxyphenyl)-2-oxoethylamino)benzamidine trifluoroacetate] displayed a 50% inhibitory concentration (IC50) of 255 nM. Also, the “h PT × 1.1: compound concentration which produced 10% prolongation compared to the control clotting time” value with healthy human plasma worked out at 1.20 µM.
The matching figures for `CCOc1cc(C(Nc2ccc(C(=N)N)cc2)C(=O)NNC(=O)c2cnccc2Cl)ccc1OC(C)C.O=C(O)C(F)(F)F` (stereo not shown) [Example 25, 4-(2-(N′-(4-Chloropyridine-3-carbonyl)hydrazino)-1-(3-ethoxy-4-isopropoxyphenyl)-2-oxoethylamino)benzamidine trifluoroacetate]: 84 nM and 1.20 µM.
Taken in the same sequence, the figures for `CCOc1cc(C(Nc2ccc(C(=N)N)cc2)C(=O)NNC(=O)c2cnccc2C)ccc1OC(C)C.O=C(O)C(F)(F)F` (stereo not shown) [Example 27, 4-(1-(3-Ethoxy-4-isopropoxyphenyl)-2-(N′-(4-methylpyridine-3-carbonyl)hydrazino)-2-oxoethylamino)benzamidine trifluoroacetate] were 69 nM and 0.74 µM.
Taken in the same sequence, the figures for `CCOc1cc(C(Nc2ccc(C(=N)N)cc2)C(=O)NNC(=O)c2ccccc2[N+](=O)[O-])ccc1OC(C)C.O=C(O)C(F)(F)F` (stereo not shown) [Example 32, 4-(1-(3-Ethoxy-4-isopropoxyphenyl)-2-(N′-(2-nitrobenzoyl)hydrazino)-2-oxoethylamino)benzamidine trifluoroacetate] were 110 nM and 0.80 µM.
In turn, `CCOc1cc(C(Nc2ccc(C(=N)N)cc2)C(=O)NNC(=O)c2ccncc2Cl)ccc1OC(C)C.O=C(O)C(F)(F)F` (stereo not shown) [Example 33, 4-(2-(N′-(3-Chloropyridine-4-carbonyl)hydrazino)-1-(3-ethoxy-4-isopropoxyphenyl)-2-oxoethylamino)benzamidine trifluoroacetate] came in with an IC50 in assay [1] of 57 nM. For the same compound, the “h PT × 1.1: compound concentration which produced 10% prolongation compared to the control clotting time” value in the assay on healthy human plasma is 1.10 µM.
Taken in the same sequence, the figures for `CCOc1cc(C(Nc2ccc(C(=N)N)cc2)C(=O)NNC(=O)c2ccncc2Br)ccc1OC(C)C.O=C(O)C(F)(F)F` (stereo not shown) [Example 34, 4-(2-(N′-(3-Bromopyridine-4-carbonyl)hydrazino)-1-(3-ethoxy-4-isopropoxyphenyl)-2-oxoethylamino)benzamidine trifluoroacetate] were 63 nM and 1.40 µM.
Taken in the same sequence, the figures for `CCOc1cc(C(Nc2ccc(C(=N)N)cc2)C(=O)NNC(=O)c2ccncc2F)ccc1OCCN(C)C.O=C(O)C(F)(F)F` (stereo not shown) [Example 53, 4-(1-(4-(2-Dimethylaminoethoxy)-3-ethoxyphenyl)-2-oxo-2-(N′-(3-fluoropyridine-4-carbonyl)hydrazino)ethylamino)benzamidine trifluoroacetate] were 164 nM and 0.65 µM.
Taken in the same sequence, the figures for `CCOc1cc(C(Nc2ccc(C(=N)N)cc2)C(=O)NNc2ccccc2OC)ccc1OCCN(C)C.O=C(O)C(F)(F)F` (stereo not shown) [Example 56, 4-(((4-(2-Dimethylaminoethoxy)-3-ethoxyphenyl)-(N′-(2-methoxyphenyl)hydrazinocarbonyl)methyl)amino)benzamidine trifluoroacetate] were 198 nM and 0.41 µM.
As for `CCOc1cc(C(Nc2ccc(C(=N)N)cc2)C(=O)NNC(=O)c2ccncc2F)ccc1OCC(=O)N(C)C.O=C(O)C(F)(F)F` (stereo not shown) [Example 60, 2-(4-(1-(4-Carbamimidoylphenylamino)-2-(N′-(3-fluoropyridine-4-carbonyl)-hydrazino)-2-oxoethyl)-2-ethoxyphenoxy)-N,N-dimethyl-acetamide trifluoroacetate], in assay [1], the half-maximal inhibitory concentration (IC50) came to 203 nM. Further, the “h PT × 1.1: compound concentration which produced 10% prolongation compared to the control clotting time” value with healthy human plasma is 0.30 µM.
Taken in the same sequence, the figures for `CCOc1cc(C(Nc2ccc(C(=N)N)cc2)C(=O)NNC(=O)c2ccncc2Cl)ccc1OCC(=O)N(C)C.O=C(O)C(F)(F)F` (stereo not shown) [Example 61, 2-(4-(1-(4-Carbamimidoylphenylamino)-2-(N′-(3-chloropyridine-4-carbonyl)hydrazino)-2-oxoethyl)-2-ethoxyphenoxy)-N,N-dimethylacetamide trifluoroacetate] were 184 nM and 0.41 µM.
Taken in the same sequence, the figures for `COc1cc(F)c(C(Nc2ccc(C(=N)N)cc2)C(=O)NNC(=O)c2ccccc2Br)cc1OC.O=C(O)C(F)(F)F` (stereo not shown) [Example 72, 4-(2-(N’-(2-Bromobenzoyl)hydrazino)-1-(2-fluoro-4,5-dimethoxyphenyl)-2-oxoethylamino)benzamidine trifluoroacetate] were 259 nM and 1.20 µM.
Take `CCOc1cc(C(Nc2ccc(C(=N)N)cc2)C(=O)NNC(=O)c2ccccc2Cl)ccc1OCC(C)(C)N` (stereo not shown) [Example X-247, 4-[1-[4-(2-Amino-2-methylpropoxy)-3-ethoxyphenyl]-2-[N′-(2-chlorobenzoyl)-hydrazino]-2-oxoethylamino]benzamidine trifluoroacetate]: the IC50 in assay [1] stood at 336 nM.

The record behind these values is patent publication US20100240654A1, “HYDRAZIDE DERIVATIVES” (priority 2004, published 2010).
